From patent US20230310573A1, “Stabilized Vaccine Compositions” (priority 2020, published 2023)

Legend:
[1] = biological target: T1, UFV170091 (HA of B/Massachussetts/2/12) (Influenza B virus, UniProt P03460); experiment: Melting temperature (Tm50) of influenza B HA trimer by DSF; assay type: physicochemical; conditions: 1:6 HA trimer:compound ratio
T1 construct: Ectodomain of wild type HA of B/Massachussetts/2/12 fused to a foldon domain at the C-terminus; His-tag (C); made in house; host or cells: ExpiCHO

[2] = biological target: T2, UFV180300 (HA of B/Colorado/06/2017) (Influenza B virus, UniProt P03460); experiment: as above; assay type: physicochemical; conditions: 1:6 HA trimer:compound ratio
T2 construct: SortA (sortase) tag (C); His-tag (C); made in house; host or cells: ExpiCHO

[3] = biological target: UFV180933 (HA of B/Brisbane/60/08) (Influenza B virus, UniProt P03460); assay type: cell-based; conditions: 1:90 HA trimer:compound ratio
[4] = biological target: ectodomain of H1N1 A/Brisbane/59/2007 (SEQ ID NO: 7) (Influenza A virus, UniProt P03452); experiment: Heat stress of influenza A HA ectodomain, trimer and monomer content by analytical SEC; assay type: physicochemical; conditions: 6 weeks at 40 degree Celsius; 1:6 HA trimer:compound ratio

| Compound | increase of the Tm (DSF) [1] [°C] | increase of the Tm (DSF) [2] [°C] | monomer and trimer content in supernatant (SEC) [3] | trimer content after heat stress (SEC) [4] |
| --- | --- | --- | --- | --- |
| c1ccc(CN2CCC(Nc3ccccc3)(c3ccccc3)CC2)cc1 [XXVII, 1-benzyl-N,4-diphenyl-piperidin-4-amine] | 0.5 | 1 | hardly monomer and mostly trimer | – |
| N#CCCCn1c(CN2C(=O)C3(CN(C(=O)C4(O)CC4)C3)c3ccccc32)cc2cc(Cl)ccc21 [Compound XV, 4-[5-chloro-2-[[1-(1-hydroxycyclopropanecarbonyl)-2′-oxo-spiro[azetidine-3,3′-indoline]-1′-yl]methyl]indol-1-yl]butanenitrile] | – | – | – | preserved the trimer content |
